From ChEMBL document CHEMBL3352007, “Deoxyribonuclease inhibitors” (Eur J Med Chem, 2014)
pIC50: −log10 of the molar value.

Columns and labels:
Deoxyribonuclease-1 [1] = target: T1, Deoxyribonuclease-1 (Homo sapiens, UniProt P24855); assay: Inhibition of DNase 1 (unknown origin)
T1 sequence (P24855 whole entry): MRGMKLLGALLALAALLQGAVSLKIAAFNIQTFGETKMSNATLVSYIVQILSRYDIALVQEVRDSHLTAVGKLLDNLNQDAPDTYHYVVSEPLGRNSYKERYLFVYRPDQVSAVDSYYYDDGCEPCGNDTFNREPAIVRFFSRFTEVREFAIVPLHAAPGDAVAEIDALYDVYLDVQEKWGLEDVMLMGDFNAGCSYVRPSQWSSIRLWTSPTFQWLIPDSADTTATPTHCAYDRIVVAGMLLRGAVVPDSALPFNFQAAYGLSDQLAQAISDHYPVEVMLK

Deoxyribonuclease-1 [2] = target: T1, Deoxyribonuclease-1; assay: Inhibition of DNase 1 (unknown origin) using (FAM)-labeled dsDNA as substrate

Compound	pIC50 (Deoxyribonuclease-1 [1])	pIC50 (Deoxyribonuclease-1 [2])
O=C(O)c1ccc(Nc2nc(Cl)nc(Cl)n2)cc1-c1c2ccc(=O)cc-2oc2cc(O)ccc12	< 3.52	
CN(C)c1ccc(C(=C2C=CC(=[N+](C)C)C=C2)c2ccc(N(C)C)cc2)cc1 [GENTIAN VIOLET]		6.46
